Measured values from patent US20050014849A1, “Antifungal phenylethylene” (priority 2001, published 2005).
≈ marks a conversion by molar mass, not a printed value. Where two headings read alike, the source gives them in different places.

Columns and labels:
[1] = tested on: C. albicans ATCC 10231; test: Broth macrodilution MIC/MFC; type: cell-based, Candida albicans
Method: (§1) TMPN was screened against yeasts by the broth macrodilution assay according to the NCCLS [7]. Yeasts were suspended and diluted as recommended to yield final inocula ranging from 0.5-2.5×10^3 cfu/ml. Tests were performed in sterile 12 by 75 mm plastic tubes containing two-fold dilutions of TMPN in 0.165 M morpholinepropanesulfonic acid buffered RPMI 1640 medium (pH 7.0). One tube was again left drug free (but contained an equivalent volume of DMSO) for a turbidity control. Tubes were incubated without agitation at the appropriate temperature (see Fungal Strains section above). MICs were determined after 72 h for Cryptococcus and after 48 h for other yeast genera. The MIC was defined as the lowest concentration of TMPN that inhibited all visible growth of the test organism (optically clear).
(§2) Minimum fungicidal concentrations (MFCs) were determined by subculturing 0.1 ml from each tube with no visible growth in the MIC broth macrodilution series onto the appropriate drug-free plates (see Fungal Strains section above).

[2] = tested on: C. albicans ATCC 14053; test: Broth macrodilution MIC/MFC; type: cell-based, Candida albicans
Method: as §1, §2

[3] = tested on: C. albicans ATCC 60193; test: Broth macrodilution MIC/MFC; type: cell-based, Candida albicans
Method: as §1, §2

[4] = tested on: Flucytosine-resistant C. albicans ATCC 32354; test: Broth macrodilution MIC/MFC; type: cell-based, Candida albicans
Method: as §1, §2

[5] = tested on: Ketoconazole-resistant C. albicans ATCC 64124; test: Broth macrodilution MIC/MFC; type: cell-based, Candida albicans
Method: as §1, §2

[6] = tested on: C. guilliermondii (9); test: Broth macrodilution MIC/MFC; type: cell-based, Candida guilliermondii
Method: as §1, §2

[7] = tested on: T. inkin ATCC 18020; test: Broth macrodilution MIC/MFC; type: cell-based, Trichosporon inkin; settings: for MFC: Trichosporon inkin ATCC 18020; for MIC: Trichosporon inkin
Method: as §1, §2
Possible host effects were also evaluated. Broth macrodilution assays were performed with RPMI medium prepared at pH 5, pH 6, and pH 7, and in RPMI medium with and without 50% normal human serum (Lampire Biological Labs). The pH experiments were performed twice on separate days.

[8] = tested on: A. niger (ASU culture collection); test: Broth macrodilution MIC/MFC, filamentous fungi; type: cell-based, Aspergillus niger
Method: Susceptibility testing of filamentous fungi was also conducted. Broth macrodilution susceptibility testing of P. lilacinus, Rhizopus spp. and Aspergillus spp. was performed in accordance with a proposed standardized procedure with slight modification. To induce conidium and sporangiospore formation, fungi were grown on PDA slants at 35° C. for 6 days (P. lilacinus, Rhizopus spp., all Aspergillus species except A. nidulans) or 3 days (A. nidulans). Fungal slants were covered with sterile 0.85% NaCl (P. lilacinus, Rhizopus spp., all Aspergillus species except A. nidulans) or 0.05% Tween 80 (A. nidulans), and suspensions were made by gently probing the colonies with the tip of a sterile Pasteur pipette. The resulting mixture of hyphal fragments and conidia or sporangiospores was withdrawn and transferred to a sterile clear microcentrifuge tube, and heavy particles were allowed to settle for 10 min. […] Susceptibility to TMPN was then determined by broth macrodilution as described above for yeast isolates. […]
as §2

[9] = tested on: fungal; test: Frequency of fungal spontaneous mutations to resistance (summary); type: cell-based; settings: summary statement
Method: Determination of the frequency of occurrence of spontaneous mutants was performed as previously described. Overnight cultures of C neoformans (ATCC 90112), C. albicans (ATCC 90028) and Trichosporon inkin (ATCC 18020) were diluted to an OD530 nm=0.3. 0.1 ml of each preparation was spread onto SDA plates containing four or eight times the broth macrodilution MIC of TMPN. The starting inoculum for each organism was also diluted and plated onto drug-free SDA plates for determination of cfu/ml. After a 48 h incubation at the appropriate temperature (see Fungal Strains section above), the number of colonies on drug-supplemented SDA was counted. The frequency of occurrence of spontaneous mutants was calculated by dividing the number of colonies on drug-containing plates by the number of colonies in the inoculum. When no colonies were visualized on drug-containing plates, the calculation was (<) 1 colony divided by the number of colonies in the inoculum.

[10] = tested on: CNS SF-295; test: Sulforhodamine B cancer cell growth inhibition; type: cell-based; settings: Homo sapiens, 48 h, read-out: GI50 (inhibition of 50% of cell growth)
Method: (§3) An investigation TMPN's in vitro antineoplastic activity was also conducted. This investigation included an analysis of both cell growth, and of the effects of TMPN upon tubulin. Inhibition of cancer cell growth was assessed using the Sulforhodamine B assay as previously described. Briefly, cells in 5% fetal calf serum/RPMI-1640 were inoculated into 96 well plates, incubated 24 h and 10-fold dilutions of TMPN added. After a 48 h incubation, plates were fixed with trichloroacetic acid, washed, stained with Sulforhodamine B and read with an automated microtiter plate reader.

[11] = tested on: Colon KM20L2; test: Sulforhodamine B cancer cell growth inhibition; type: cell-based; settings: Homo sapiens, KM-20L2, 48 h, read-out: GI50 (inhibition of 50% of cell growth)
Method: as §3

[12] = tested on: Lung-NSC NCI-H460; test: Sulforhodamine B cancer cell growth inhibition; type: cell-based; settings: Homo sapiens, 48 h, read-out: GI50 (inhibition of 50% of cell growth)
Method: as §3

[13] = tested on: Ovarian OVCAR-3; test: Sulforhodamine B cancer cell growth inhibition; type: cell-based; settings: Homo sapiens, 48 h, read-out: GI50 (inhibition of 50% of cell growth)
Method: as §3

[14] = tested on: Pancreas BXPC-3; test: Sulforhodamine B cancer cell growth inhibition; type: cell-based; settings: Homo sapiens, 48 h, read-out: GI50 (inhibition of 50% of cell growth)
Method: as §3

[15] = tested on: Prostate DU-145; test: Sulforhodamine B cancer cell growth inhibition; type: cell-based; settings: Homo sapiens, 48 h, read-out: GI50 (inhibition of 50% of cell growth)
Method: as §3

`COc1cc(C=C[N+](=O)[O-])cc(OC)c1OC` [TMPN, 1-(3′,4′,5′-trimethoxyphenyl)-2-nitro-ethylene] was tested, and the “MFC Range” value [1] was 8 µg/mL (≈ 33.4 µM), the “MIC Range” value [1] was 8 µg/mL (≈ 33.4 µM) and the “MFC Range” value [2] was 16 µg/mL (≈ 66.9 µM). For the same compound, the “MIC Range” value [2] was 16 µg/mL (≈ 66.9 µM), the “MFC Range” value [3] was 16 µg/mL (≈ 66.9 µM) and the “MIC Range” value [3] was 16 µg/mL (≈ 66.9 µM). The “MFC Range” value [4] was 16 µg/mL (≈ 66.9 µM), the “MIC Range” value [4] was 16 µg/mL (≈ 66.9 µM) and the “MFC Range” value [5] was 32 µg/mL (≈ 134 µM). For the same compound, the “MIC Range” value [5] was 16 µg/mL (≈ 66.9 µM), the “MFC Range” value [6] was greater than 64 µg/mL and the MFC ([7]; ATCC18020, pH 6, pH6, read-out: MFC) was 16 µg/mL (≈ 66.9 µM). The MFC ([7]; ATCC18020, pH 7, pH7, read-out: MFC) was 16 µg/mL (≈ 66.9 µM), the MFC ([7]; ATCC18020, no serum, read-out: MFC) was 16 µg/mL (≈ 66.9 µM) and the MFC ([7]; ATCC18020, pH 5, read-out: MFC) was 8 µg/mL (≈ 33.4 µM). For the same compound, the “MFC Range” value ([7]; T. inkin ATCC 18020) was 16 µg/mL (≈ 66.9 µM), the “MIC Range” value ([7]; T. inkin ATCC 18020) was 8 µg/mL (≈ 33.4 µM) and the MFC ([7]; pH 5, repeat experiment) was 8 µg/mL (≈ 33.4 µM). For the same compound, the MFC ([7]; pH6, repeat experiment) was 16 µg/mL (≈ 66.9 µM), the MFC ([7]; pH7, repeat experiment) was 16 µg/mL (≈ 66.9 µM) and the MIC ([7]; ATCC18020, Trichosporon inkin ATCC 18020, 50% human serum) was greater than 64 µg/mL. For the same compound, the MIC ([7]; ATCC18020, Trichosporon inkin ATCC 18020, no serum) was 8 µg/mL (≈ 33.4 µM), the MIC ([7]; ATCC18020, pH 5, Trichosporon inkin ATCC 18020, pH 5) was 4 µg/mL (≈ 16.7 µM) and the MIC ([7]; ATCC18020, pH 5, Trichosporon inkin ATCC 18020, pH 5, repeat experiment) was 4 µg/mL (≈ 16.7 µM). For the same compound, the MIC ([7]; ATCC18020, pH 6, Trichosporon inkin ATCC 18020, pH6) was 8 µg/mL (≈ 33.4 µM), the MIC ([7]; ATCC18020, pH 6, Trichosporon inkin ATCC 18020, pH6, repeat experiment) was 8 µg/mL (≈ 33.4 µM) and the MIC ([7]; ATCC18020, pH 7, Trichosporon inkin ATCC 18020, pH7) was 8 µg/mL (≈ 33.4 µM). For the same compound, the MIC ([7]; ATCC18020, pH 7, Trichosporon inkin ATCC 18020, pH7, repeat experiment) was 8 µg/mL (≈ 33.4 µM), the “MFC Range” value [8] was 64 µg/mL (≈ 268 µM) and the “MIC Range” value [8] was 16 µg/mL (≈ 66.9 µM). The “frequency of fungal spontaneous mutations to resistance” value [9] was < 10^−6, the GI50 [10] was 2 µg/mL (≈ 8.36 µM) and the GI50 [11] was 1.4 µg/mL (≈ 5.85 µM). The GI50 [12] was 1.4 µg/mL (≈ 5.85 µM), the GI50 [13] was 1.8 µg/mL (≈ 7.52 µM) and the GI50 [14] was 1.6 µg/mL (≈ 6.69 µM). It also gave a GI50 [15] of 1.1 µg/mL (≈ 4.6 µM).
